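Step 1: Grow cells in 96-well plates. Step 2: Expose to compound for 48 hours at 5 concentrations. Step 3: Interpolate endpoints linearly; if unreached, use highest concentration. GI50 = concentration required for 50% inhibition of growth.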 Activity calls are given as the source filed them. Rule as the data show it: active = GI50 up to about 1.1 µM and inactive = higher.
Legend:
Assay in all cases: NCI-60 cell line screen, 48 h
OVCAR-8 = test system: OVCAR-8
MDA-N = test system: MDA-N
SK-MEL-5 = test system: SK-MEL-5
IGROV-1 = test system: IGROV-1
A549 = test system: A549
SR = test system: SR
HOP-62 = test system: HOP-62
RXF 393 = test system: RXF 393
NCI-H226 = test system: NCI-H226
HCT-116 = test system: HCT-116
NCI-H23 = test system: NCI-H23
786-0 = test system: 786-0
KM12 = test system: KM12
Malme-3M = test system: Malme-3M
BT-549 = test system: BT-549
M14 = test system: M14
A498 = test system: A498
SK-OV-3 = test system: SK-OV-3
HOP-92 = test system: HOP-92

Measured: GI50

COC1=C2C[C@](OC)(C#CC=CC#CC2O)CC1(C)C (stereo partly specified)
inactive: OVCAR-8 > 100 µM | MDA-N > 100 µM | SK-MEL-5 > 100 µM | IGROV-1 18.2 µM | A549 40.4 µM | SR 56.4 µM | HOP-62 > 100 µM | RXF 393 > 100 µM | NCI-H226 > 100 µM | HCT-116 > 100 µM | NCI-H23 > 100 µM | 786-0 > 100 µM | KM12 > 100 µM | Malme-3M > 100 µM | BT-549 > 100 µM

CSc1nc2ccccc2c(=O)n1/N=C1\C(=O)N(CN2CCCCC2)c2ccc(Cl)cc21
inactive: OVCAR-8 37.2 µM | M14 30.5 µM | A498 27.8 µM | MDA-N 21.8 µM | SK-MEL-5 27.9 µM | IGROV-1 13.5 µM | A549 37.2 µM | SK-OV-3 27.4 µM | HOP-92 32.9 µM | HOP-62 33.3 µM | RXF 393 17.5 µM | NCI-H226 75.9 µM | HCT-116 18.5 µM | NCI-H23 28.4 µM | 786-0 22.3 µM | KM12 25.1 µM | Malme-3M > 100 µM | BT-549 15 µM

O=C1/C(=N\n2c(S)nnc2-c2ccncc2)c2cc(Cl)ccc2N1CN1CCCCC1
inactive: OVCAR-8 31.8 µM | M14 44.7 µM | A498 50.9 µM | MDA-N 31.5 µM | SK-MEL-5 48.6 µM | IGROV-1 16.1 µM | A549 53.2 µM | SK-OV-3 39.5 µM | HOP-92 56 µM | HOP-62 30.3 µM | RXF 393 15.8 µM | NCI-H226 > 100 µM | HCT-116 37.8 µM | NCI-H23 46.6 µM | 786-0 27.7 µM | KM12 38.3 µM | Malme-3M > 100 µM | BT-549 25.9 µM

O=[N+]([O-])C(C(Cl)=C(Cl)Cl)=C(N(Cc1ccccc1)Cc1ccccc1)N(Cc1ccccc1)Cc1ccccc1
inactive: OVCAR-8 > 100 µM | M14 34.8 µM | A498 30.5 µM | MDA-N 45.3 µM | SK-MEL-5 42.8 µM | IGROV-1 45.1 µM | A549 > 100 µM | SK-OV-3 38.1 µM | HOP-92 15.6 µM | HOP-62 43.7 µM | RXF 393 92.9 µM | NCI-H226 36.6 µM | HCT-116 42.1 µM | NCI-H23 > 100 µM | 786-0 48.8 µM | KM12 > 100 µM | Malme-3M 34 µM | BT-549 > 100 µM

CCCCNC(=S)c1ccc(OC(=O)Nc2ccc(Cl)cc2)cc1
inactive: OVCAR-8 12.6 µM | M14 9.27 µM | A498 85.1 µM | MDA-N > 100 µM | SK-MEL-5 20 µM | IGROV-1 3.02 µM | A549 39.1 µM | SR 16.3 µM | SK-OV-3 > 100 µM | HOP-62 > 100 µM | HCT-116 38.4 µM | NCI-H23 31.2 µM | 786-0 > 100 µM | KM12 2.75 µM | Malme-3M 79.8 µM | BT-549 20.6 µM

O=C1CCc2nc3ncccc3cc2C1
inactive: M14 > 100 µM | A498 > 100 µM | MDA-N 63.5 µM | SK-MEL-5 > 100 µM | IGROV-1 58.2 µM | A549 > 100 µM | SK-OV-3 > 100 µM | HOP-92 > 100 µM | HOP-62 > 100 µM | RXF 393 > 100 µM | NCI-H226 > 100 µM | HCT-116 65.5 µM | NCI-H23 > 100 µM | 786-0 > 100 µM | Malme-3M > 100 µM | BT-549 > 100 µM

O=C1CCCCC/C1=C\c1cccc([N+](=O)[O-])c1
inactive: OVCAR-8 33 µM | M14 26.5 µM | A498 > 100 µM | MDA-N 53.7 µM | SK-MEL-5 18.4 µM | IGROV-1 19.4 µM | A549 44.6 µM | SR 11.6 µM | SK-OV-3 79.1 µM | HOP-62 38.9 µM | RXF 393 28.7 µM | HCT-116 22.2 µM | 786-0 33.2 µM | KM12 25 µM | Malme-3M 28.5 µM | BT-549 24.5 µM

O=C(NN1C(=O)C=CC1=O)c1ccccc1Nc1ccccc1C(=O)NN1C(=O)C=CC1=O
inactive: OVCAR-8 > 100 µM | M14 > 100 µM | MDA-N > 100 µM | SK-MEL-5 > 100 µM | IGROV-1 > 100 µM | SR > 100 µM | HOP-92 > 100 µM | HOP-62 > 100 µM | RXF 393 > 100 µM | NCI-H226 > 100 µM | HCT-116 > 100 µM | NCI-H23 > 100 µM | 786-0 > 100 µM | KM12 > 100 µM | Malme-3M > 100 µM | BT-549 > 100 µM

O=C(Nc1ccc(Cl)cc1C(F)(F)F)C(=O)Nn1c(S)nc2ccccc2c1=O
inactive: OVCAR-8 > 100 µM | M14 > 100 µM | A498 > 100 µM | MDA-N > 100 µM | SK-MEL-5 > 100 µM | A549 > 100 µM | SK-OV-3 > 100 µM | HOP-92 3.99 µM | HOP-62 > 100 µM | RXF 393 > 100 µM | NCI-H226 > 100 µM | HCT-116 > 100 µM | NCI-H23 > 100 µM | 786-0 > 100 µM | KM12 > 100 µM | BT-549 > 100 µM

CCOC(=O)CC1C(O)C(=O)N(C)C1c1ccccc1 (stereo unspecified)
inactive: OVCAR-8 > 100 µM | M14 > 100 µM | MDA-N > 100 µM | SK-MEL-5 > 100 µM | IGROV-1 > 100 µM | A549 > 100 µM | SR > 100 µM | SK-OV-3 > 100 µM | HOP-92 > 100 µM | HOP-62 > 100 µM | RXF 393 > 100 µM | NCI-H226 > 100 µM | HCT-116 > 100 µM | NCI-H23 > 100 µM | 786-0 > 100 µM | KM12 > 100 µM | Malme-3M > 100 µM | BT-549 > 100 µM

CC(C)(C)OC(=O)N1CCC2(C)CC(=O)CC=C12 (stereo unspecified)
inactive: OVCAR-8 > 100 µM | M14 > 100 µM | MDA-N > 100 µM | SK-MEL-5 > 100 µM | IGROV-1 > 100 µM | A549 > 100 µM | SR 72.4 µM | SK-OV-3 > 100 µM | HOP-92 > 100 µM | HOP-62 > 100 µM | RXF 393 > 100 µM | NCI-H226 > 100 µM | HCT-116 81.8 µM | NCI-H23 > 100 µM | 786-0 > 100 µM | KM12 > 100 µM | Malme-3M > 100 µM | BT-549 > 100 µM

CC(=O)Oc1ccc2c(c1)O/C(=C\c1ccc(N(C)C)cc1)C2=O
inactive: OVCAR-8 > 100 µM | M14 > 100 µM | MDA-N 36.4 µM | SK-MEL-5 > 100 µM | IGROV-1 > 100 µM | A549 > 100 µM | SR 37.2 µM | SK-OV-3 > 100 µM | HOP-62 > 100 µM | RXF 393 73.5 µM | NCI-H226 > 100 µM | HCT-116 85.5 µM | NCI-H23 > 100 µM | 786-0 > 100 µM | KM12 90.8 µM | BT-549 68.4 µM

— ChEMBL document CHEMBL1201862, “PubChem BioAssay data set” (2004)
